Values of other authors in US11903955B2, “Methods of treating heart failure with reduced ejection fraction” (ASTRAZENECA AB, priority 2019, dated 2024).

Assays:
[1] = tested on: patients with systolic heart failure; details: after 12 months of treatment, SHIFT; cited from earlier work
patients with HFrEF = details: after 8 months of treatment, PARADIGM-HF; cited from earlier work

Compound	mean improvement in KCCQ-CSS [1]	mean improvement in KCCQ-OSS [1]	improvement in KCCQ-CS over enalapril (patients with HFrEF)	improvement in KCCQ-OS over enalapril (patients with HFrEF)
COc1cc2c(cc1OC)CC(=O)N(CCCN(C)C[C@H]1Cc3cc(OC)c(OC)cc31)CC2 [ivabradine]	1.8 point	2.4 point	–	–
sacubitril-valsartan	–	–	0.9 point	1.3 point
